The text below walks through data of US6855695B2, “Water-soluble SHPs as novel alkylating agents” (Vion Pharmaceuticals, Inc., priority 2003, dated 2005).

≈ marks a conversion by molar mass, not a printed value.

Series [1] can be described thus: Water-solubility at room temperature. The note with it: thermodynamic from solid; for solubility: determined visually by incremental addition, not at equilibrium. The format is physicochemical. On the procedure: The solubility of the newly synthesized SHPs (19, 20a, 21, and 22a) is much higher than that of VNP40101 M, as shown in Table 1.
For the free phosphoric acid 19 and 20a, an excess amount of the drug was placed in a glass vial containing 2.0 mL of water. The vials were shaken in a Glas Col rotary apparatus at room temperature for 24 hours. The suspension containing undissolved drug was centrifuged; the supernatant was carefully separated and analyzed by HPLC for drug concentration. […] Aqueous solutions of 19 and 20a were colorless. Similarly, the solubility of the sodium salts 21 and 22a was determined visually by adding incremental quantities of the drug to 2.0 mL of water in a glass vial. The vials were shaken at room temperature in a Glas Col rotary apparatus until the drug dissolved entirely. Additional fixed quantities of drug were added and the vials shaken until complete dissolution. This process was continued until no more drug dissolved. Compounds 21 and 22a are highly water-soluble. Because of limited drug supplies determination of the solubilities at equilibrium could not be obtained. Solubilities of >0.98 and >1.35 g/mL for 21 and 22a, respectively, were determined.

A short description of series [2]: Pharmacokinetic study in rats, single iv bolus, HPLC-UV. The format is in vivo, female Sprague-Dawley rats. The note with it: iv bolus 50 mg/kg. On the procedure: Preliminary investigations of the pharmacokinetic profiles of prodrugs 19 and 20a were conducted in female Sprague-Dawley rats (10 weeks old, 250 g, Charles River). Each prodrug was administered as a single bolus intravenous (iv) injection via the jugular vein at a dose of 50 mg per kg (mpk) of body weight. Blood samples were collected on the day of dosing at the following time points: pre-dose and approximately 2, 10, 30 min, 1, 2, and 24 hr, after dosing. At each time point, approximately 0.2 mL of blood was collected in a tube containing an anticoagulant (heparin), which was immediately acidified by adding 0.005 mL of a 2.0 M citric acid solution. Then, the tube was inverted 4 to 6 times and immediately placed on ice. The blood samples were centrifuged within 30 min after blood collection at 3,000 rpm for 10-20 min at 2-8° C., and the plasma fraction was transferred to a labeled Nunc cryovial. The plasma samples were immediately frozen on dry ice and stored at −20° C. until HPLC-UV analysis. Animals were euthanized with CO2 inhalation after experiments.
Bioanalytical methods were developed to quantify these prodrugs in rat plasma using HPLC-UV at either 220 nm or 230 nm. Each plasma sample (0.1 mL) was extracted with 0.2 mL of acetonitrile. The extract was separated by centrifugation and analyzed directly by HPLC-UV. HPLC calibration standards were prepared in control rat plasma and processed as above.
Comparison to VNP101M (10 mpk of radioactive VNP101M was used in previous experiments) is difficult because of the difference in doses used in two the studies.

In series [3] the test system is alkaline phosphatase. Description: In vitro enzymatic bioconversion by alkaline phosphatase. In kind it is in vitro ADME. As to conditions: bovine, alkaline phosphatase from bovine intestinal mucosa; approx. 0.055 unit/mL AP in 50 mM Tris buffered saline pH 7.6, 37° C., drug approx. 50 μg/mL. The method, then: Each drug, at a final concentration of approximately 50 μg/mL, was incubated at 37° C. in 50 mM Tris buffered saline (pH 7.6) containing approximately 0.055 unit/mL of the phosphatase enzyme.
(§1) A control sample of each drug at a final concentration of 50 μg/mL in 50 mM Tris buffered saline (pH 7.6) without AP was also incubated at 37° C. Aliquots of each solution were taken periodically; disappearance of the tested drug was determined by HPLC.

Series [4] is described as follows: Stability in 100% human plasma. The format is in vitro ADME. The note with it: both sexes, 37° C. On the procedure:
(§2) The stability of compounds 19, 20a and VNP40101M was evaluated in 100% human plasma (pooled mixed gender, BioChemed) at a final concentration of 50 μg/mL. Each drug (19 or 20a) was incubated in human plasma at 37° C. for a maximum of two hours. Aliquots of the incubation mixture were taken at various time points and extracted with acetonitrile. The extract was separated by centrifugation and analyzed directly by HPLC. In a similar manner, VNP40101M was incubated in human plasma at 37° C. for a maximum of one hour. At various time points, aliquots of the incubation mixture were removed and extracted with 0.5% H3PO4 in acetonitrile. The extract was separated by centrifugation and analyzed directly by HPLC. For comparison, the stability of each drug incubated in 50 mM Tris buffered saline (pH 7.6) instead of 100% human plasma was also determined.

The nature of series [5]: Aqueous stability in potassium phosphate buffers (50 mM), pH 3, 5, 7 and 9, HPLC. The format is physicochemical. As to conditions: potassium phosphate buffer 50 mM. On the procedure:
The stabilities of PAP-101M (19), OAP-101M (20a), and VNP40101M were investigated in potassium phosphate buffers (50 mM) at pH 3, 5, 7 and 9 and at room temperature (22-25° C.). One sample was prepared at each pH for each drug; the initial drug concentration in each sample was 50 μg/mL. Each sample was analyzed by HPLC repetitively, at various time points, to determine the
concentration of the respective drug. The first-order kinetic half-lives of each drug were calculated.

The test system of series [6] is B16-F10 murine melanoma. Description: In vivo anti-tumor activity, B16-F10 murine melanoma implanted subcutaneously in C57BL/6 mice. The note with it: for Tumor growth inhibition on Day 24: ip weekly for four weeks from Day 2, 80 mg/kg VNP40101M, equal molar doses of prodrugs. On the procedure:
(§3) The anti-tumor effects of VNP40101 M and prodrugs, including PAP-101M (19), OAP-101M (20a), PAP-Na-101M (21), and OAP-Na-101M (22a), were evaluated in both the B16-F10 murine melanoma and HTB177 human lung carcinoma models. B16-F10 melanoma cells were implanted subcutaneously (5×10^5 cells) into C57BL/6 mice, which were randomized into groups of ten immediately after tumor cell implantation (Day 0). On Day 2, mice were injected intraperitoneally with either a bolus injection of 0.1 mL PBS or drug. The treatment was carried out weekly for four consecutive weeks. Tumor measurement in three dimensions was determined once a week with the formula L×H×W/2, where L, H, and W represent length, height, and width, respectively. […] On Day 24, tumor growth was inhibited by 81% in mice treated with 80 mg/kg of VNP40101M, and by 75 to 91% in mice treated with equal molar doses of the prodrugs. […] The toxicity of these drugs in mice was mild as determined by body weight loss and animal appearance, as illustrated in FIG. 13.

The subject of series [7] is HTB177 human lung carcinoma. Description: In vivo anti-tumor activity, HTB177 human lung carcinoma in nu/nu CD-1 mice. On the procedure:
as §3

For series [8] the following is noted: room temperature, Krishna et al. 2001; cited from earlier work.
Series [9] concerns leukemia cells implanted intracranially. As to conditions: Finch et al. 2001; cited from earlier work.
The nature of series [10]: Stability in 50 mM Tris buffered saline pH 7.6 (control without AP or plasma). The format is physicochemical. As to conditions: 50 mM Tris buffered saline pH 7.6, 37° C. The method, then:
as §1, §2

Where [11] appears, read: female, Sprague-Dawley, rat, plasma.
Where [12] appears, read: pH 9, room temperature (22-25° C.), read-out: Half-life, pH 9 (converted).

The term solubility denotes the dissolved amount per volume that the medium holds. A higher solubility goes with a readily soluble substance. As to `CN(Cc1ccc(OP(=O)([O-])[O-])cc1)C(=O)N(N(CCCl)S(C)(=O)=O)S(C)(=O)=O.[Na+].[Na+]` [PAP-Na-101M (21), Phosphoric acid 4-{N-[1,2-bis(methylsulfonyl)-2-(2-chloroethyl)-hydrazinylcarbonyl]-N-methylaminomethyl}-phenyl ester disodium salt], in [1], the solubility at 24 h was > 980 mg/mL and the solubility was > 980 mg/mL.
The term half-life denotes the time needed for the level to fall by half in the phase considered. `CN(Cc1ccc(OP(=O)(O)O)cc1)C(=O)N(N(CCCl)S(C)(=O)=O)S(C)(=O)=O` [PAP-101M (19), Phosphoric acid mono-{4-{N-[1,2-bis(methylsulfonyl)-2-(2-chloroethyl)-hydrazinylcarbonyl]-N-methylaminomethyl}-phenyl} ester]: the “Pharmacokinetic determination in rat plasma (in words)” value in series [2] is given as “fast conversion or clearance”. Also, in series [1], the solubility at 24 h is 293 mg/mL (≈ 593 mM). The half-life at 50 μg/mL in series [3] was 21.1 min; in series [4], 34.3 min.
As a reminder, the AUC is the area under the concentration-time curve, a measure of exposure. What is called Cmax is the peak of the concentration-time curve. Broadly, the clearance is the rate of elimination divided by the concentration. Read a low clearance as a low capacity for elimination. Take `CN(Cc1ccccc1OP(=O)(O)O)C(=O)N(N(CCCl)S(C)(=O)=O)S(C)(=O)=O` [OAP-101M (20a), Phosphoric acid mono-{2-{N-[1,2-bis(methylsulfonyl)-2-(2-chloroethyl)-hydrazinylcarbonyl]-N-methylaminomethyl}-phenyl} ester]: in [2] (female, Sprague-Dawley, rat, plasma, iv, 50 mg/kg), the half-life was ~14 min. The AUC in series [2] (setting [11]) is 21900 ng·h/mL. The same compound registered a Cmax in series [2] (setting [11]) of 239 µg/mL. The same compound gave a clearance in series [2] (setting [11]) of 37.8 mL/min/kg. Moreover, the Vd in [2] (female, Sprague-Dawley, rat, plasma, read-out: Vss) amounted to 0.146 L/kg. For the same compound, the concentration in solution in series [1] (solubility at 24 h) came to 46 mg/mL (≈ 93.1 mM). In addition, the half-life at 50 μg/mL in [3] is 29 min; in [5] (setting [12]) it was 171 days; in series [4] it was 53.3 min. For the same compound, the “Survival of tumor-bearing mice (FIG. 12)” value in series [6] (B16-F10 tumor-bearing mice, versus other drugs) is “survived longer”. Further, the “Tumor growth inhibition on Day 24” value in [6] is 91%. Moreover, the “Anti-tumor effect in HTB177 human lung carcinoma (FIGS. 14 and 15)” value in series [7] is reported as “holdout promise”.
For `CN(Cc1ccccc1OP(=O)([O-])[O-])C(=O)N(N(CCCl)S(C)(=O)=O)S(C)(=O)=O.[Na+].[Na+]` [OAP-Na-101M (22a), Phosphoric acid 2-{N-[1,2-bis(methylsulfonyl)-2-(2-chloroethyl)-hydrazinylcarbonyl]-N-methylaminomethyl}-phenyl ester disodium salt], in series [1], the solubility at 24 h is > 1350 mg/mL and the solubility is > 1350 mg/mL. In addition, the “Tumor growth inhibition on Day 24” value in [6] was 89.5%. For the same compound, the “Anti-tumor effect in HTB177 human lung carcinoma (FIGS. 14 and 15)” value in [7] is reported as “holdout promise”.
For `CNC(=O)N(N(CCCl)S(C)(=O)=O)S(C)(=O)=O` [VNP40101M, 1,2-Bis(methylsulfonyl)-1-(2-chloroethyl)-2-(methylaminocarbonyl) hydrazine], the Water-solubility in [8] was 0.66 mg/mL. In addition, in series [9], the Log cell kill is > 6.54 log cell kill. For the same compound, the half-life at 50 μg/mL in [5] (pH 5, room temperature (22-25° C.), read-out: Half-life, pH 5 (converted)) was 118 days; in series [5] (pH 7, room temperature (22-25° C.), read-out: Half-life, pH 7 (converted)), 0.508 days; in series [5] (setting [12]), 0.00479 days; in series [4] it was 14.5 min; in series [10], 20.5 min. In addition, in series [6], the “Tumor growth inhibition on Day 24” value came out at 81%.
